# Assay results as given in patent US6737383B1, “Herbicidal oxadiazolidines” (priority 1999, dated 2004).
# Legend:
# blackgrass = assay: Test B pre/postemergence blackgrass; format: in vivo, Alopecurus myosuroides; details: for Blackgrass plant response rating: Postemergence; for Plant response rating, Blackgrass: Preemergence
# Summary of the method: (§1)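 Response is a visual 0-to-10 score relative to untreated plants, where 0 means no effect and 10 means complete control, taken twelve to sixteen days after application. Treatments went onto soil at planting and onto foliage of 1- to 4-leaf plants, using a surfactant-containing non-phytotoxic solvent.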
# rice = assay: Test B flood test rice; format: in vivo, Oryza sativa
# Summary of the method: (§2)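 Read-out is a visual response score from 0 (no effect) to 10 (complete control), assigned by comparison with untreated controls. Treatment was applied at the 2-leaf stage, and plants stayed in the greenhouse for twelve to sixteen days before scoring.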
# smallflower flatsedge = assay: Test B flood test smallflower flatsedge; format: in vivo, Cyperus difformis
# Summary of the method: as §2
# wild oat = assay: Test B pre/postemergence wild oat; format: in vivo, Avena fatua; details: for Wild oats plant response rating: Postemergence; for Plant response rating, Wild oats: Preemergence
# Summary of the method: as §1
# bamyardgrass = assay: Test B flood test barnyardgrass; format: in vivo, Echinochloa crus-galli
# Summary of the method: as §2
# [1] = Rate 125 g/ha, scale of 0 to 10 where 0 is no effect and 10 is complete control
# [2] = Rate 1000 g/ha, scale 0 to 10 (0 no effect, 10 complete control)
# [3] = Rate 500 g/ha, scale of 0 to 10 where 0 is no effect and 10 is complete control
# [4] = Rate 250 g/ha, scale 0 to 10, 0 is no effect, 10 is complete control
# [5] = Rate 500 g/ha, scale 0 to 10, 0 is no effect, 10 is complete control
# [6] = Pre-emergence, Rate 1000 g/ha, scale 0 to 10 (0 no effect, 10 complete control)
# [7] = Rate 125 g/ha, under heading Pre-emergence, flood test species, visual evaluation after twelve to sixteen days
# [8] = Rate 250 g/ha, Pre-emergence (flood test species), scale 0 to 10, 0 is no effect, 10 is complete control
# [9] = Rate 500 g/ha, Pre-emergence section of Table B, 0 to 10 scale (0 no effect, 10 complete control)
smiles,measurement,setting,value
COC(=O)C(CCO)n1c(=O)on(C(=O)N(c2ccc(F)cc2)C(C)C)c1=O (centres unmarked) [Compound 680],Blackgrass plant response rating,blackgrass; [1],0
same,Blackgrass plant response rating,blackgrass; [2],3
same,"Plant response rating, Blackgrass",blackgrass; [1],0
same,"Plant response rating, Blackgrass","blackgrass; Rate 250 g/ha, scale 0 to 10 (0 no effect, 10 complete control)",0
same,"Plant response rating, Blackgrass",blackgrass; [3],4
same,Blackgrass plant response rating,blackgrass; [4],0
same,Blackgrass plant response rating,blackgrass; [5],1
same,"Plant response rating, Blackgrass",blackgrass; [2],4
same,Rice plant response rating,rice; [6],0
same,"Rice plant response rating (0 to 10 scale, 0 is no effect, 10 is complete control)",rice; [7],0
same,Rice plant response rating,rice; [8],0
same,Rice plant response rating,rice; [9],0
same,S. Flatsedge plant response rating,smallflower flatsedge; [6],0
same,"S. Flatsedge plant response rating (0 to 10 scale, 0 is no effect, 10 is complete control)",smallflower flatsedge; [7],0
same,S. Flatsedge plant response rating,smallflower flatsedge; [8],0
same,S. Flatsedge plant response rating,smallflower flatsedge; [9],0
same,Wild oats plant response rating,wild oat; [1],0
same,"Plant response rating, Wild oats",wild oat; [1],0
same,"Plant response rating, Wild oats",wild oat; [3],0
same,Wild oats plant response rating,wild oat; [4],0
same,Wild oats plant response rating,wild oat; [5],0
same,"Plant response rating, Wild oats",wild oat; [2],2
same,Barnyardgrass plant response rating,bamyardgrass; [6],0
same,"Barnyardgrass plant response rating (0 to 10 scale, 0 is no effect, 10 is complete control)",bamyardgrass; [7],0
same,Barnyardgrass plant response rating,bamyardgrass; [8],0
same,Barnyardgrass plant response rating,bamyardgrass; [9],0
